We go through 11 compounds from US4377583A, “N-Methyl-D-glucamine salt of with 3,4-dihydro-5-methyl-6-(2-methylpropyl)-4-oxothieno[2,3-d]pyrimidine-2-c arboxylic acid” (Mead Johnson & Company, priority 1981, dated 1983).

Molecules are shown by their SMILES. Where a name gives a salt, the structure may show the parent alone.

For data set [1] the following is noted: cited from earlier work.
A short description of the next data set: pH of salts of MJ 12175. Type of data set: physicochemical. The conditions noted are these: room temperature (about 25° C.). The source says: (§1) Many conventional pharmaceutically acceptable amine salts of MJ 12175 are not well suited for the present use due to limited solubility, lack of stability, pH ranges differing sufficiently from physiological pH (~7.4) to the extent that irritation of tissue becomes a problem.
(§2) The amine salts of MJ 12175 shown in Table 1 were first prepared in situ by adding the amine to a suspension of MJ 12175 in a quantity of water sufficient to give a 4% aqueous solution of the resulting salt. When a precipitate formed on amine addition indicating relative insolubility, pH was not measured as in the cases of salts 4 through 8 in Table 1. Although solutions were obtained with the other salts formed in situ supersaturation of these solutions appears likely since the four salts (Nos. 2, 3, 9, 11) which were isolated were less than 4% soluble on redissolution. […] The three crystalline salts were the only examples where solid precipitated from the in situ solutions on standing. Of the three crystalline isolated amine salts of MJ 12175, the glucamine salt best meets the water solubility and pH criteria.

Data set [2] is described as follows: Water solubility of isolated salts of MJ 12175 (redissolution). Type of data set: physicochemical. The conditions noted are these: for H2O Solubility isolated salt: room temperature (about 25° C.).
Excerpt: as §1, §2

The nature of data set [3]: Water solubility of salts of MJ 12175 formed in situ (4% aqueous solution). Type of data set: physicochemical. The conditions noted are these: room temperature (about 25° C.); precipitate formed on amine addition, indicating relative insolubility.
Excerpt: as §1, §2

Data set [4] can be described thus: Physical state of isolated salts. Type of data set: physicochemical.
Excerpt: as §2

Data set [5] can be described thus: Stability of aqueous solutions on extended storage.

For `Cc1c(CC(C)C)sc2nc(C(=O)O)[nH]c(=O)c12` [potassium salt], the pH of solutions result in data set [1] (not desirable for nasal instillation) is given as “alkaline pH”. For the same compound, in data set [1] (relative to MJ 12175), the water solubility result is given as “improved water solubility”.
Turning to `Cc1c(CC(C)C)sc2nc(C(=O)O)[nH]c(=O)c12` [compound 12], in “pH of salts of MJ 12175”, the pH is on record as 6.29.
Regarding `Cc1c(CC(C)C)sc2nc(C(=O)O)[nH]c(=O)c12` [MJ 12175, 3,4-Dihydro-5-methyl-6-(2-methylpropyl)-4-oxothieno[2,3-d]pyrimidine-2-carboxylic Acid], in the data set “pH of salts of MJ 12175” (listed as 1), the pH was found to be 11.22. For the same compound, in data set [2] (listed as 1), the “H2O Solubility isolated salt” value came out at 8900 µg/mL.
For `Cc1c(CC(C)C)sc2nc(C(=O)O)[nH]c(=O)c12` [compound 4], the “H2O Solubility in situ (ppt)” value in data set [3] was “ppt”.
Turning to `Cc1c(CC(C)C)sc2nc(C(=O)O)[nH]c(=O)c12` [compound 11], the pH in the data set “pH of salts of MJ 12175” was 6.42. The “solubility of isolated salts on redissolution” value (shortened to “solubility of isolated salts”) in data set [2] (isolated salts, redissolution) is given as “less than 4%”. The “physical state of isolated salt” value in data set [4] is “remained a non-crystallinetar during attempted purification”.
For the compound `Cc1c(CC(C)C)sc2nc(C(=O)O)[nH]c(=O)c12` [compound 9], in “pH of salts of MJ 12175”, the pH is on record as 6.81. Further, in data set [2] (isolated salts, redissolution), the “solubility of isolated salts” value is recorded as “less than 4%”. Besides, the “H2O Solubility isolated salt” value in data set [2] was less than 1000 µg/mL.
In the case of `Cc1c(CC(C)C)sc2nc(C(=O)O)[nH]c(=O)c12` [compound 13], the pH in the data set “pH of salts of MJ 12175” is given as 8.08.
As to `Cc1c(CC(C)C)sc2nc(C(=O)O)[nH]c(=O)c12` [compound 10], in the data set “pH of salts of MJ 12175”, the pH is 4.55.
In the case of `Cc1c(CC(C)C)sc2nc(C(=O)O)[nH]c(=O)c12` [compound 3], in “pH of salts of MJ 12175”, the pH is 4.7. The “solubility of isolated salts” value in data set [2] (isolated salts, redissolution) was “less than 4%”. Also, in data set [2], the “H2O Solubility isolated salt” value turned out to be 5000 µg/mL.
`Cc1c(CC(C)C)sc2nc(C(=O)O)[nH]c(=O)c12` [Salt No. 2, 3,4-Dihydro-5-methyl-6-(2-methylpropyl)-4-oxothieno[2,3-d]pyrimidine-2-carboxylic Acid N-methyl-D-glucamine Salt]: in the data set “pH of salts of MJ 12175”, the pH was 6.4. In addition, in data set [2], the “H2O Solubility isolated salt” value is 12000 µg/mL. Besides, the solubility in data set [2] (water, isolated salts, redissolution) was less than 40000 µg/mL. In addition, the “stability of aqueous solutions” value in data set [5] is reported as “demonstrated the stability of its aqueous solutions on extended storage”.
Turning to `Cc1c(CC(C)C)sc2nc(C(=O)O)[nH]c(=O)c12` [compound 14], the pH in the data set “pH of salts of MJ 12175” was found to be 9.59.

In general, solubility refers to the dissolved amount per volume that the medium holds.
